Target: Coagulation factor XI (Homo sapiens, UniProt P03951)
Assay: In Vitro Assays: Factor XIa determinations were made in 50 mM HEPES buffer at pH 7.4 containing 145 mM NaCl, 5 mM KCl, and 0.1% PEG 8000 (polyethylene glycol; JT Baker or Fisher Scientific). Determinations were made using purified human Factor XIa at a final concentration of 25-200 pM (Haematologic Technologies) and the synthetic substrate S-2366 (pyroGlu-Pro-Arg-pNA; CHROMOGENIX® or AnaSpec) at a concentration of 0.0002-0.001 M.

Sequence of Coagulation factor XI (P03951 19-387 limits assumed): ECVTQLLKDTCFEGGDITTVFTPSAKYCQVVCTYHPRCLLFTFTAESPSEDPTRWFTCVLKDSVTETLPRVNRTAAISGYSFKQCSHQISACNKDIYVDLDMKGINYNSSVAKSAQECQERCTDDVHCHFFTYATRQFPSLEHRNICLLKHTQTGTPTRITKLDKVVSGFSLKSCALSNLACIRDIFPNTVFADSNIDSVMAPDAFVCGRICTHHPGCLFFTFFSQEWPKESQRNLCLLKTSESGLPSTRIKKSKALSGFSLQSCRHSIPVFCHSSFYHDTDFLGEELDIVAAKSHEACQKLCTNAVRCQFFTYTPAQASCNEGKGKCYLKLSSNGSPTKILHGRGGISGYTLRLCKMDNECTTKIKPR
Sequence of Coagulation factor XI (P03951 388-625 limits assumed): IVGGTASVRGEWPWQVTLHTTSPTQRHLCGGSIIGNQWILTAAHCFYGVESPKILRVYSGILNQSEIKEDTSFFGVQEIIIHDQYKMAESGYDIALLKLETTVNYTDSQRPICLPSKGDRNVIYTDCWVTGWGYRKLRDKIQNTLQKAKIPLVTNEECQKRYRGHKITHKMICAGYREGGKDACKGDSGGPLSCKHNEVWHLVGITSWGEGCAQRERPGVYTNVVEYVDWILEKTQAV

- Ki: 289 nM
Compound: COC(=O)Nc1ccc2c(c1)N[C@@H](C(F)F)CCCC[C@H](NC(=O)/C=C/c1cc(Cl)ccc1-n1cnnn1)c1nc-2c[nH]1
